The source made the active and inactive calls. The rule behind the calls is not given here.
Target: glutathione S-transferase (GST-GSH binding)
Experiment: GST–glutathione interaction disruption – biochemical, multiplex beads, flow cytometry, HPSMTB buffer, profiling panel (AID 1324);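 note: glutathione beads loaded with GST-green fluorescent protein and no fluorescent Bim peptide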
Conditions: multiplex bead flow cytometry, MCF, concentration not given here

Structure (SMILES)	percent span inhibition
Cc1ccc(-c2cc(-c3ccc(F)cc3)c(C#N)c(N)n2)o1	inactive
CN(CCCOc1ccccc1Br)Cc1ccccc1	inactive
CC1(C)CC(NC(=O)COc2ccc([N+](=O)[O-])cc2)CC(C)(C)N1	inactive
Cc1cccc(-c2nnc3n2N=C(c2ccccc2)CS3)c1	inactive
COc1cc(/C=C2\S/C(=N/S(=O)(=O)c3ccc(C)cc3)NC2=O)c([N+](=O)[O-])cc1OC	inactive
CC(=O)NC1=C(NC2CCS(=O)(=O)C2)C(=O)c2ccccc2C1=O (stereo unspecified)	inactive
CN(Cc1ccccc1)c1nc2c(c(=O)[nH]c(=O)n2C)n1C	inactive
O=C(Cc1ccccc1)OCCNC(=O)c1cccnc1	inactive
Cc1ccc2c(C)c(C(=O)Nc3nnc(C)s3)oc2c1	inactive
CC(C)n1nnnc1SCC(=O)N1CCN(C(=O)c2ccco2)CC1	inactive
O=C(NC1=NCCS1)NC12CC3CC(CC(C3)C1)C2	inactive
CCNC(=S)Nc1ccc(OCC)cc1	inactive
COc1cc(N2CCOCC2)ccc1C=C1C(=O)NC(=O)NC1=O	inactive
CCN(CC)c1ccc(NC(=O)c2cccc(C)c2)cc1S(=O)(=O)Nc1ccccc1OC	inactive
Cc1ccc(/C=C2/NC(=O)N(Cc3ccccc3)C2=O)o1	inactive
O=C(CSc1ccc2nnc(-c3ccccn3)n2n1)Nc1nccs1	inactive
COc1cccc2c1C(=O)C=C(C)C2=O	inactive
Cc1ccccc1-c1nc(-c2ccc(NC(=O)c3ccc4c(c3)OCO4)cc2)no1	inactive
OC(CNC1CCCCC1)COCCOc1ccc(Br)cc1 (stereo unspecified)	inactive
CCN(CC)c1ccc(NC(=O)c2ccccc2Br)cc1S(=O)(=O)Nc1ccccc1OC	inactive
O=C(CC1NCCNC1=O)Nc1cccc([N+](=O)[O-])c1 (stereo unspecified)	inactive
O=C1NCCN1C(=O)N(c1ccccc1)c1ccccc1	inactive
CCOc1ccccc1NC(=O)CSc1nnc2ccc(-c3cccnc3)nn12	inactive
CCC(/C=C1\Sc2ccc(OC)cc2N1CCO)=C\c1sc2ccc(OC)cc2[n+]1CCO	inactive
CCN1CCN(c2ccc(NC(=O)c3ccc4c(c3)[nH]c(=O)n4Cc3ccc(OC)cc3)cc2)CC1	inactive
CCNCc1cc(Br)c(OCC(=O)Nc2ccccc2)c(OC)c1	inactive

Structure (SMILES)	percent span inhibition
Cc1ccc(C)c(NC(=O)C(=O)NCc2ccccn2)c1	inactive
COc1ccc2nc(NC(=O)c3ccc(-c4cccc([N+](=O)[O-])c4)o3)sc2c1	inactive
CCCn1c(C)cc(-c2csc(N)n2)c1C	inactive
C#CCOCCOCCOCCNc1nc(N2CCN(C(=O)[C@H](CCCCN)n3cc(CCCC)nn3)CC2)nc(N2CCN(C(=O)[C@H](Cc3ccc(O)cc3)n3cc(CCO)nn3)CC2)n1	inactive
O=C1N/C(=C/c2cccn2-c2ccccc2)C(=O)N1Cc1ccc(F)cc1	inactive
COc1ccc(NC(=O)c2ccc(CN3CCN(c4ccccc4)CC3)cc2)cc1	inactive
Cc1ccc(-c2ccc(/C=C/C(=O)c3ccccc3)o2)cc1	inactive
CCOC(=O)C1=C(CC)Nc2ccccc2N=C1NC(=O)c1ccc(S(=O)(=O)N2CCOCC2)cc1	inactive
CC1Nc2ccccc2C(=O)N1NS(C)(=O)=O (stereo unspecified)	inactive
CNc1ccc(Br)cc(C(=O)/C=C/c2cccc(OC)c2OC)c1=O	inactive
CN1CCN(c2ccccc2N)CC1	inactive
O=C(O)/C=C/C(=O)NNC(=O)c1ccc(Br)cc1	inactive
c1ccc(Nc2nc(-c3ccncc3)cs2)cc1	inactive
O=[N+]([O-])c1ccc2[nH]nc(-c3ccccc3)c2c1	inactive
Nc1ccccc1N=c1ssnc1Cl	inactive
COc1ccccc1C1=Nc2cccc3cccc(c23)N1	inactive
O=C(C[n+]1ccc(-c2nnc3n2CCC3)cc1)c1ccc(Cl)cc1	inactive
O=C(C1=NN[C@@H]2C(=O)N(c3ccccc3C(F)(F)F)C(=O)[C@H]12)c1ccc2ccccc2n1	inactive
CC[n+]1c(/C=C/C=C/N(C(C)=O)c2ccccc2)sc2ccccc21	inactive
COc1ccc(C)cc1-n1c(=O)c2ccccc2c2ccccc2c1=O	inactive
CCOC(=O)CSC1=NC(=O)/C(=C/c2ccc(OC)cc2)S1	inactive
COC(=O)CCC(=O)Nc1sc(Cc2ccccc2)c(C)c1C(N)=O	inactive
Cc1cc(N)ccc1N1CCCC1	inactive
COc1ccc(/C=C/C(=O)c2cc(Br)ccc(=O)c2O)cc1	inactive
COCCN=c1scc(-c2cccs2)n1/N=C/c1ccc(O)c(O)c1O	inactive

Reference: PubChem BioAssay AID1324 (NMMLSC, 2008)
